The test system of this assay is Malassezia furfur. The assay can be described thus: ΣFIC assay against Malassezia furfur (in-vitro susceptibility testing, alamar blue). It counts as cell-based. The settings on record: CBS1878, active alone, M. furfur CBS 1878 in Pityrosporum Broth, 32° C., complete growth inhibition by alamar blue, read-out: Minimum Inhibition Concentration (MIC). The protocol:
A brief description of the method is given below.
Methods: ΣFIC Assay Against Malassezia furfur
They are then incubated at 32° C. for 48 hrs with shaking. Then, 1 ml of the first broth culture is transferred into 9 ml of fresh PB and incubated at 32° C. for 48 hrs with shaking. The final culture should contain 2 to 6×10^6 cells/ml. This is achieved by diluting using PB to 5*10^5 cell/ml.
Binary combinations of ZPTO and the testing compound were prepared in 96-well plate by mixing 20 μl of zinc pyrithione solution with 20 μl of testing compound. The solution in each well were further mixed with 160 μl of PB and 20 μl of M. furfur. The final cell density in the testing plate is around 5*10^4 cell/ml, and the final concentration of actives in each well of the 96-wel plate were shown below.
The plate was incubated at 32° C. for one day. Then 20 μl of alamar blue (0.01%) was added into each well with a further incubation for one day to observe the color change. Red color indicates microbial growth and the non-changing blue color indicates no growth.
The MIC is defined as the absolute lowest concentration of active that provides complete microbial growth inhibition as indicated by the blue color of alamar blue under the tested condition. […]
Background: Resazurin is reduced to fluorescent resorufin, in cell work by metabolically active cells.

On to `O=C(c1ccccc1)c1ccc(O)cc1O` [benzophenone-1], for which the MIC was found to be 500 µg/mL. Turning to `O=C(c1ccc(O)cc1O)c1ccc(O)cc1O` [benzophenone-2], the MIC is 1000 µg/mL.

Values taken from patent US20210283035A1, “AN ANTIMICROBIAL COMPOSITION” (Conopco, Inc., d/b/a UNILEVER, priority 2016, published 2021).
